Test results from PubChem BioAssay (NCI).
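Following 48 hours of exposure in 96-well plates, responses at five concentrations were used to interpolate endpoints linearly. TGI is the concentration that stops growth completely.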

Tests used:
Experiment in all cases: NCI-60 cell line screen, 48 h
786-0 renal = system: 786-0 renal
OVCAR-4 ovarian = system: OVCAR-4 ovarian
MDA-MB-231 breast = system: MDA-MB-231 breast
MALME-3M melanoma = system: MALME-3M melanoma
RXF 393 renal = system: RXF 393 renal
K-562 leukemia = system: K-562 leukemia
COLO 205 colon = system: COLO 205 colon
ACHN renal = system: ACHN renal
SR leukemia = system: SR leukemia
SF-539 CNS = system: SF-539 CNS
UO-31 renal = system: UO-31 renal
SW-620 colon = system: SW-620 colon
OVCAR-3 ovarian = system: OVCAR-3 ovarian
CCRF-CEM leukemia = system: CCRF-CEM leukemia
HCT-15 colon = system: HCT-15 colon
M14 melanoma = system: M14 melanoma
HL-60(TB) leukemia = system: HL-60(TB) leukemia
PC-3 prostate = system: PC-3 prostate
HOP-62 NSCLC = system: HOP-62 NSCLC
NCI-H522 lung = system: NCI-H522 lung
HT29 colon = system: HT29 colon
MDA-N = system: MDA-N
HCC-2998 colon = system: HCC-2998 colon
NCI/ADR-RES ovarian = system: NCI/ADR-RES ovarian
MOLT-4 leukemia = system: MOLT-4 leukemia
UACC-257 melanoma = system: UACC-257 melanoma
MCF7 breast = system: MCF7 breast
UACC-62 melanoma = system: UACC-62 melanoma
SF-295 CNS = system: SF-295 CNS
SK-MEL-2 melanoma = system: SK-MEL-2 melanoma
KM12 colon = system: KM12 colon
IGROV1 ovarian = system: IGROV1 ovarian
A549 NSCLC = system: A549 NSCLC
SNB-75 CNS = system: SNB-75 CNS
LOX IMVI melanoma = system: LOX IMVI melanoma
SF-268 CNS = system: SF-268 CNS
TK-10 renal = system: TK-10 renal
HOP-92 NSCLC = system: HOP-92 NSCLC
SK-OV-3 ovarian = system: SK-OV-3 ovarian
NCI-H460 lung = system: NCI-H460 lung
NCI-H23 lung = system: NCI-H23 lung
SN12C renal = system: SN12C renal
HCT-116 colon = system: HCT-116 colon
SNB-19 CNS = system: SNB-19 CNS
A498 renal = system: A498 renal
MDA-MB-435 = system: MDA-MB-435
SK-MEL-28 melanoma = system: SK-MEL-28 melanoma
T-47D breast = system: T-47D breast
NCI-H226 lung = system: NCI-H226 lung
SK-MEL-5 melanoma = system: SK-MEL-5 melanoma
U251 CNS = system: U251 CNS
DU-145 prostate = system: DU-145 prostate
OVCAR-8 ovarian = system: OVCAR-8 ovarian
CAKI-1 renal = system: CAKI-1 renal
EKVX NSCLC = system: EKVX NSCLC
RPMI-8226 leukemia = system: RPMI-8226 leukemia

## CC(=O)OCC1OC(n2c(C)c(C(C)=O)c(-c3ccc(Cl)cc3)c(C#N)c2=S)C(OC(C)=O)C(OC(C)=O)C1OC(C)=O (stereo unspecified)
786-0 renal
  TGI: > 100 µM
OVCAR-4 ovarian
  TGI: > 100 µM
MDA-MB-231 breast
  TGI: > 100 µM
MALME-3M melanoma
  TGI: > 100 µM
RXF 393 renal
  TGI: > 100 µM
K-562 leukemia
  TGI: > 100 µM
COLO 205 colon
  TGI: > 100 µM
ACHN renal
  TGI: > 100 µM
SR leukemia
  TGI: > 100 µM
SF-539 CNS
  TGI: > 100 µM
UO-31 renal
  TGI: > 100 µM
SW-620 colon
  TGI: > 100 µM
OVCAR-3 ovarian
  TGI: > 100 µM
CCRF-CEM leukemia
  TGI: > 100 µM
HCT-15 colon
  TGI: > 100 µM
M14 melanoma
  TGI: > 100 µM
HL-60(TB) leukemia
  TGI: > 100 µM
PC-3 prostate
  TGI: > 100 µM
HOP-62 NSCLC
  TGI: > 100 µM
NCI-H522 lung
  TGI: > 100 µM
HT29 colon
  TGI: > 100 µM
MDA-N
  TGI: > 100 µM
HCC-2998 colon
  TGI: > 100 µM
NCI/ADR-RES ovarian
  TGI: > 100 µM
MOLT-4 leukemia
  TGI: > 100 µM
UACC-257 melanoma
  TGI: > 100 µM
MCF7 breast
  TGI: > 100 µM
UACC-62 melanoma
  TGI: > 100 µM
SF-295 CNS
  TGI: > 100 µM
SK-MEL-2 melanoma
  TGI: > 100 µM
KM12 colon
  TGI: > 100 µM
IGROV1 ovarian
  TGI: > 100 µM
A549 NSCLC
  TGI: > 100 µM
SNB-75 CNS
  TGI: > 100 µM
LOX IMVI melanoma
  TGI: > 100 µM
SF-268 CNS
  TGI: > 100 µM
TK-10 renal
  TGI: > 100 µM
HOP-92 NSCLC
  TGI: > 100 µM
SK-OV-3 ovarian
  TGI: > 100 µM
NCI-H460 lung
  TGI: > 100 µM
NCI-H23 lung
  TGI: > 100 µM
SN12C renal
  TGI: > 100 µM
HCT-116 colon
  TGI: > 100 µM
SNB-19 CNS
  TGI: > 100 µM
A498 renal
  TGI: > 100 µM
MDA-MB-435
  TGI: > 100 µM
SK-MEL-28 melanoma
  TGI: > 100 µM
T-47D breast
  TGI: > 100 µM
NCI-H226 lung
  TGI: > 100 µM
SK-MEL-5 melanoma
  TGI: > 100 µM
U251 CNS
  TGI: > 100 µM
DU-145 prostate
  TGI: > 100 µM
OVCAR-8 ovarian
  TGI: > 100 µM

## CCOC(=O)N1CCC2C(=C(C)C(C)C3=C2C(=O)c2ccccc2C3=O)C1 (stereo unspecified)
786-0 renal
  TGI: > 10 µM
OVCAR-4 ovarian
  TGI: > 10 µM
CAKI-1 renal
  TGI: > 10 µM
MDA-MB-231 breast
  TGI: > 10 µM
MALME-3M melanoma
  TGI: 6.77 µM
RXF 393 renal
  TGI: > 10 µM
K-562 leukemia
  TGI: > 10 µM
COLO 205 colon
  TGI: > 10 µM
SR leukemia
  TGI: > 10 µM
SW-620 colon
  TGI: > 10 µM
CCRF-CEM leukemia
  TGI: > 10 µM
HCT-15 colon
  TGI: > 10 µM
M14 melanoma
  TGI: > 10 µM
HL-60(TB) leukemia
  TGI: 5.15 µM
PC-3 prostate
  TGI: > 10 µM
HOP-62 NSCLC
  TGI: > 10 µM
HT29 colon
  TGI: > 10 µM
MDA-N
  TGI: > 10 µM
HCC-2998 colon
  TGI: > 10 µM
MOLT-4 leukemia
  TGI: > 10 µM
UACC-257 melanoma
  TGI: > 10 µM
MCF7 breast
  TGI: > 10 µM
UACC-62 melanoma
  TGI: > 10 µM
SF-295 CNS
  TGI: > 10 µM
EKVX NSCLC
  TGI: > 10 µM
KM12 colon
  TGI: > 10 µM
IGROV1 ovarian
  TGI: > 10 µM
A549 NSCLC
  TGI: > 10 µM
SNB-75 CNS
  TGI: > 10 µM
LOX IMVI melanoma
  TGI: > 10 µM
SF-268 CNS
  TGI: > 10 µM
TK-10 renal
  TGI: > 10 µM
HOP-92 NSCLC
  TGI: > 10 µM
SK-OV-3 ovarian
  TGI: > 10 µM
NCI-H23 lung
  TGI: > 10 µM
RPMI-8226 leukemia
  TGI: > 10 µM
SN12C renal
  TGI: > 10 µM
MDA-MB-435
  TGI: 4.53 µM
SK-MEL-28 melanoma
  TGI: > 10 µM
T-47D breast
  TGI: > 10 µM
SK-MEL-5 melanoma
  TGI: 4.27 µM
DU-145 prostate
  TGI: > 10 µM
OVCAR-8 ovarian
  TGI: > 10 µM
